Source: patent publication US20230085307A1, “PYRIDAZINONE COMPOUND AND HERBICIDE” (NISSAN CHEMICAL CORPORATION, priority 2019, published 2023)

Legend:
wild oat [1] = assay: Test Example 5: herbicidal effect by foliage application, plastic box (Table 20, symbol I); assay type: in vivo, wild oat (Avena fatua); conditions: 320 g/ha, foliage application after 14-day growth, evaluated three weeks after application
How it was run: (§1)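 Foliar spray test: emulsion formulation diluted in water to a set application rate, sprayed onto 14-day-old plants raised in diluvial soil at 25° C to 30° C under glass. Both herbicidal effect and crop effect rated visually three weeks later.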

barnyard grass [2] = assay: Test Example 3: herbicidal effect by foliage application, Wagner pot (Table 18, symbol H); assay type: in vivo, barnyard grass (Echinochloa crus-galli); conditions: 320 g/ha
How it was run: (§2)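 Plants were sown in alluvial soil held under 0.1–0.5 cm standing water and grown 14 days in a greenhouse at 25–30 °C. An emulsifiable formulation, water-diluted to the set dose, was then sprayed onto the foliage, and effects were scored three weeks later using previously defined criteria.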

Italian ryegrass [3] = assay: Test Example 5: herbicidal effect by foliage application, plastic box (Table 20, symbol K); assay type: in vivo, Italian ryegrass (Lolium multiflorum); conditions: 320 g/ha, foliage application after 14-day growth, evaluated three weeks after application
How it was run: as §1

chickweed [4] = assay: Test Example 5: herbicidal effect by foliage application, plastic box (Table 20, symbol P); assay type: in vivo, common chickweed (Stellaria media); conditions: 320 g/ha, foliage application after 14-day growth, evaluated three weeks after application
How it was run: as §1

blackgrass [5] = assay: Test Example 5: herbicidal effect by foliage application, plastic box (Table 20, symbol J); assay type: in vivo, blackgrass (Alopecurus myosuroides); conditions: 320 g/ha, foliage application after 14-day growth, evaluated three weeks after application
How it was run: as §1

rice flat sedge = assay: Test Example 3: herbicidal effect by foliage application, Wagner pot (Table 18, symbol E); assay type: in vivo, rice flat sedge (Cyperus iria); conditions: 320 g/ha
How it was run: as §2

windgrass [6] = assay: Test Example 5: herbicidal effect by foliage application, plastic box (Table 20, symbol L); assay type: in vivo, windgrass (Apera spica-venti); conditions: 320 g/ha, foliage application after 14-day growth, evaluated three weeks after application
How it was run: as §1

persian speedwell [7] = assay: Test Example 4: herbicidal effect by soil treatment (Table 19, symbol R); assay type: in vivo, Persian speedwell (Veronica persica); conditions: amount of applied herbicide 320 g/ha
How it was run: (§3)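 Step 1: sow seeds in sterilized diluvial soil, cover ~1.5 cm. Step 2: spray diluted emulsion onto soil surface at predetermined rate. Step 3: greenhouse, 25–30° C, three weeks. Step 4: grade effect on each plant by earlier criteria.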

lambsquarters [8] = assay: Test Example 5: herbicidal effect by foliage application, plastic box (Table 20, symbol O); assay type: in vivo, lambsquarters (Chenopodium album); conditions: 320 g/ha, foliage application after 14-day growth, evaluated three weeks after application
How it was run: as §1

wild oat [9] = assay: Test Example 4: herbicidal effect by soil treatment (Table 19, symbol I); assay type: in vivo, wild oat (Avena fatua); conditions: amount of applied herbicide 320 g/ha
How it was run: as §3

chickweed [10] = assay: Test Example 4: herbicidal effect by soil treatment (Table 19, symbol P); assay type: in vivo, common chickweed (Stellaria media); conditions: amount of applied herbicide 320 g/ha
How it was run: as §3

blackgrass [11] = assay: Test Example 4: herbicidal effect by soil treatment (Table 19, symbol J); assay type: in vivo, blackgrass (Alopecurus myosuroides); conditions: amount of applied herbicide 320 g/ha
How it was run: as §3

Chinese sprangletop = assay: Test Example 3: herbicidal effect by foliage application, Wagner pot (Table 18, symbol D); assay type: in vivo, chinese sprangletop (Leptochloa chinensis); conditions: 320 g/ha
How it was run: as §2

barnyard grass [12] = assay: Test Example 4: herbicidal effect by soil treatment (Table 19, symbol H); assay type: in vivo, barnyard grass (Echinochloa crus-galli); conditions: amount of applied herbicide 320 g/ha
How it was run: as §3

redroot pigweed [13] = assay: Test Example 4: herbicidal effect by soil treatment (Table 19, symbol N); assay type: in vivo, redroot pigweed (Amaranthus retroflexus); conditions: amount of applied herbicide 320 g/ha
How it was run: as §3

redroot pigweed [14] = assay: Test Example 5: herbicidal effect by foliage application, plastic box (Table 20, symbol N); assay type: in vivo, redroot pigweed (Amaranthus retroflexus); conditions: 320 g/ha, foliage application after 14-day growth, evaluated three weeks after application
How it was run: as §1

southern crabgrass [15] = assay: Test Example 5: herbicidal effect by foliage application, plastic box (Table 20, symbol F); assay type: in vivo, southern crabgrass (Digitaria ciliaris); conditions: 320 g/ha, foliage application after 14-day growth, evaluated three weeks after application
How it was run: as §1

velvetleaf [16] = assay: Test Example 4: herbicidal effect by soil treatment (Table 19, symbol M); assay type: in vivo, velvetleaf (Abutilon theophrasti); conditions: amount of applied herbicide 320 g/ha
How it was run: as §3

persian speedwell [17] = assay: Test Example 5: herbicidal effect by foliage application, plastic box (Table 20, symbol R); assay type: in vivo, Persian speedwell (Veronica persica); conditions: 320 g/ha, foliage application after 14-day growth, evaluated three weeks after application
How it was run: as §1

Japanese bulrush = assay: Test Example 2: herbicidal activity, application during weed generation under submerged conditions (Table 17, symbol B); assay type: in vivo, Japanese bulrush (Schoenoplectus juncoides); conditions: AAH 320 g/ha; application during weed generation, submerged conditions
How it was run: (§4)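 Mixed weed seedlings in alluvial soil under a 4 cm water layer, greenhouse-grown at 25–30° C. Compound given as a diluted emulsion into the floodwater at the 1–2 leaf stage; response graded after three weeks.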

barnyard grass [18] = assay: Test Example 5: herbicidal effect by foliage application, plastic box (Table 20, symbol H); assay type: in vivo, barnyard grass (Echinochloa crus-galli); conditions: 320 g/ha, foliage application after 14-day growth, evaluated three weeks after application
How it was run: as §1

velvetleaf [19] = assay: Test Example 5: herbicidal effect by foliage application, plastic box (Table 20, symbol M); assay type: in vivo, velvetleaf (Abutilon theophrasti); conditions: 320 g/ha, foliage application after 14-day growth, evaluated three weeks after application
How it was run: as §1

southern crabgrass [20] = assay: Test Example 4: herbicidal effect by soil treatment (Table 19, symbol F); assay type: in vivo, southern crabgrass (Digitaria ciliaris); conditions: amount of applied herbicide 320 g/ha
How it was run: as §3

Italian ryegrass [21] = assay: Test Example 4: herbicidal effect by soil treatment (Table 19, symbol K); assay type: in vivo, Italian ryegrass (Lolium multiflorum); conditions: amount of applied herbicide 320 g/ha
How it was run: as §3

windgrass [22] = assay: Test Example 4: herbicidal effect by soil treatment (Table 19, symbol L); assay type: in vivo, windgrass (Apera spica-venti); conditions: amount of applied herbicide 320 g/ha
How it was run: as §3

late watergrass = assay: Test Example 2: herbicidal activity, application during weed generation under submerged conditions (Table 17, symbol A); assay type: in vivo, late watergrass (Echinochloa oryzicola); conditions: AAH 320 g/ha; application during weed generation, submerged conditions
How it was run: as §4

green foxtail [23] = assay: Test Example 4: herbicidal effect by soil treatment (Table 19, symbol G); assay type: in vivo, green foxtail (Setaria viridis); conditions: amount of applied herbicide 320 g/ha
How it was run: as §3

oval-leafed pondweed = assay: Test Example 2: herbicidal activity, application during weed generation under submerged conditions (Table 17, symbol C); assay type: in vivo, oval-leafed pondweed (Monochoria vaginalis); conditions: AAH 320 g/ha; application during weed generation, submerged conditions
How it was run: as §4

green foxtail [24] = assay: Test Example 5: herbicidal effect by foliage application, plastic box (Table 20, symbol G); assay type: in vivo, green foxtail (Setaria viridis); conditions: 320 g/ha, foliage application after 14-day growth, evaluated three weeks after application
How it was run: as §1

lambsquarters [25] = assay: Test Example 4: herbicidal effect by soil treatment (Table 19, symbol O); assay type: in vivo, lambsquarters (Chenopodium album); conditions: amount of applied herbicide 320 g/ha
How it was run: as §3

CCCC(=O)Oc1c(C)nn(C)c(=O)c1-c1c(-c2ccc(C(F)(F)F)cc2)sc2c(Cl)cccc12 [4-030]
herbicidal effect on I: wild oat (evaluation grade 0-5) (wild oat [1]): 3 (Herbicidal rate of 40% or more and less than 70%)
herbicidal effect on barnyard grass (H) (barnyard grass [2]): 3 (Herbicidal rate of 40% or more and less than 70%)
herbicidal effect on K: Italian ryegrass (evaluation grade 0-5) (Italian ryegrass [3]): 0 (Herbicidal rate of 5% or less (almost no effect))
herbicidal effect on P: chickweed (evaluation grade 0-5) (chickweed [4]): 5 (Herbicidal rate of 90% or more (almost completely withered))
herbicidal effect on J: blackgrass (evaluation grade 0-5) (blackgrass [5]): 0 (Herbicidal rate of 5% or less (almost no effect))
herbicidal effect on rice flat sedge (E) (rice flat sedge): 3 (Herbicidal rate of 40% or more and less than 70%)
herbicidal effect on L: windgrass (evaluation grade 0-5) (windgrass [6]): 5 (Herbicidal rate of 90% or more (almost completely withered))
Herbicidal effect by soil treatment, R: persian speedwell (persian speedwell [7]): 0 (Herbicidal rate of 5% or less (almost no effect))
herbicidal effect on O: lambsquarters (evaluation grade 0-5) (lambsquarters [8]): 0 (Herbicidal rate of 5% or less (almost no effect))
Herbicidal effect by soil treatment, I: wild oat (wild oat [9]): 0 (Herbicidal rate of 5% or less (almost no effect))
Herbicidal effect by soil treatment, P: chickweed (chickweed [10]): 3 (Herbicidal rate of 40% or more and less than 70%)
Herbicidal effect by soil treatment, J: blackgrass (blackgrass [11]): 0 (Herbicidal rate of 5% or less (almost no effect))
herbicidal effect on Chinese sprangletop (D) (Chinese sprangletop): 5 (Herbicidal rate of 90% or more (almost completely withered))
Herbicidal effect by soil treatment, H: barnyard grass (barnyard grass [12]): 0 (Herbicidal rate of 5% or less (almost no effect))
Herbicidal effect by soil treatment, N: redroot pigweed (redroot pigweed [13]): 0 (Herbicidal rate of 5% or less (almost no effect))
herbicidal effect on N: redroot pigweed (evaluation grade 0-5) (redroot pigweed [14]): 0 (Herbicidal rate of 5% or less (almost no effect))
herbicidal effect on F: southern crabgrass (evaluation grade 0-5) (southern crabgrass [15]): 0 (Herbicidal rate of 5% or less (almost no effect))
Herbicidal effect by soil treatment, M: velvetleaf (velvetleaf [16]): 0 (Herbicidal rate of 5% or less (almost no effect))
herbicidal effect on R: persian speedwell (evaluation grade 0-5) (persian speedwell [17]): 5 (Herbicidal rate of 90% or more (almost completely withered))
herbicidal effect rating, B: Japanese bulrush (Japanese bulrush): 3 (Herbicidal rate of 40% or more and less than 70%)
herbicidal effect on H: barnyard grass (evaluation grade 0-5) (barnyard grass [18]): 0 (Herbicidal rate of 5% or less (almost no effect))
herbicidal effect on M: velvetleaf (evaluation grade 0-5) (velvetleaf [19]): 0 (Herbicidal rate of 5% or less (almost no effect))
Herbicidal effect by soil treatment, F: southern crabgrass (southern crabgrass [20]): 0 (Herbicidal rate of 5% or less (almost no effect))
Herbicidal effect by soil treatment, K: Italian ryegrass (Italian ryegrass [21]): 0 (Herbicidal rate of 5% or less (almost no effect))
Herbicidal effect by soil treatment, L: windgrass (windgrass [22]): 0 (Herbicidal rate of 5% or less (almost no effect))
herbicidal effect rating, A: late watergrass (late watergrass): 3 (Herbicidal rate of 40% or more and less than 70%)
Herbicidal effect by soil treatment, G: green foxtail (green foxtail [23]): 0 (Herbicidal rate of 5% or less (almost no effect))
herbicidal effect rating, C: oval-leafed pondweed (oval-leafed pondweed): 3 (Herbicidal rate of 40% or more and less than 70%)
herbicidal effect on G: green foxtail (evaluation grade 0-5) (green foxtail [24]): 0 (Herbicidal rate of 5% or less (almost no effect))
Herbicidal effect by soil treatment, O: lambsquarters (lambsquarters [25]): 0 (Herbicidal rate of 5% or less (almost no effect))
